Where “and” joins values, the source holds several entries; their conditions need not be identical. Equal values may be shown once. Toxic doses and inconclusive results are not listed.

For eight molecules, T/C results are on record in PubChem BioAssay AID254 (DTP/NCI, 2004).

The subject of the experiment is L1210 leukemia iv in BDF1 mice, survival T/C. Kind of experiment: NCI In Vivo Anticancer Drug Screen. Data for tumor model L1210 Leukemia (intravenous) in B6D2F1 (BDF1) mice. The settings on record: higher = longer survival. The method, then:
The antitumor activity of compounds was measured in mice bearing transplantable tumors. Survival or tumor size were measured and the results are expressed as the measurement made in the treated group (T) divided by the measurement made in the vehicle treated control group (C). The tumor model used in this assay is L1210 Leukemia (intravenous) in B6D2F1 (BDF1) mice

Regarding `CN(Cc1cnc2nc(N)nc(N)c2n1)c1ccc(C(=O)N[C@@H](CCC(=O)O)C(=O)O)cc1`, the T/C reads like this: (endpoint: mean survival time, dose: 0.3 mg/kg/injection, schedule: Q01DX008 (ip), vehicle: other) 110 % of control; (endpoint: mean survival time, dose: 0.3 mg/kg/injection, schedule: Q01HX008 (ip), vehicle: other) 121 % of control; (endpoint: mean survival time, dose: 0.3 mg/kg/injection, schedule: Q03HX008 (ip), vehicle: other) 118 % of control; (endpoint: mean survival time, dose: 0.3 mg/kg/injection, schedule: Q06HX008 (ip), vehicle: other) 116 % of control; (endpoint: mean survival time, dose: 0.3 mg/kg/injection, schedule: Q12HX008 (ip), vehicle: other) 115 % of control; (endpoint: mean survival time, dose: 0.4 mg/kg/injection, schedule: Q01DX008 (ip), vehicle: other) 121 % of control. In addition, the T/C by setting is: (endpoint: mean survival time, dose: 0.4 mg/kg/injection, schedule: Q01HX008 (ip), vehicle: other) 119 % of control; (endpoint: mean survival time, dose: 0.4 mg/kg/injection, schedule: Q03HX008 (ip), vehicle: other) 119 % of control; (endpoint: mean survival time, dose: 0.4 mg/kg/injection, schedule: Q06HX008 (ip), vehicle: other) 122 % of control; (endpoint: mean survival time, dose: 0.4 mg/kg/injection, schedule: Q12HX008 (ip), vehicle: other) 115 % of control; (endpoint: mean survival time, dose: 2.4 mg/kg/injection, schedule: Q01DX001 (ip), vehicle: other) 122 % of control; (endpoint: mean survival time, dose: 3.2 mg/kg/injection, schedule: Q01DX001 (ip), vehicle: other) 119 % of control.

`CCCCCCCCCCCCCCCC(=O)OCC1OC(n2ccc(N)nc2=O)C(O)C1O` (centres undefined): the T/C was 118 % of control and 122 % of control (endpoint: mean survival time, dose: 5.0 mg/kg/injection, schedule: Q01DX005 (ip), vehicle: other); 172 % of control (endpoint: mean survival time, dose: 10.0 mg/kg/injection, schedule: Q01DX005 (ip), vehicle: other); 177 % of control (endpoint: mean survival time, dose: 15.0 mg/kg/injection, schedule: Q01DX005 (ip), vehicle: other); 165 % of control and 183 % of control (endpoint: mean survival time, dose: 18.0 mg/kg/injection, schedule: Q01DX004 (ip), vehicle: other); 175 % of control and 176 % of control and 200 % of control (endpoint: mean survival time, dose: 20.0 mg/kg/injection, schedule: Q01DX005 (ip), vehicle: other); 171 % of control and 211 % of control and 220 % of control (endpoint: mean survival time, dose: 25.0 mg/kg/injection, schedule: Q01DX005 (ip), vehicle: other). Also, the T/C by setting is: (endpoint: mean survival time, dose: 27.0 mg/kg/injection, schedule: Q01DX004 (ip), vehicle: other) 182 % of control and 234 % of control; (endpoint: mean survival time, dose: 27.0 mg/kg/injection, schedule: Q02DX004 (ip), vehicle: other) 178 % of control and 193 % of control; (endpoint: mean survival time, dose: 30.0 mg/kg/injection, schedule: Q01DX005 (ip), vehicle: other) 217 % of control and 249 % of control and 252 % of control; (endpoint: mean survival time, dose: 35.0 mg/kg/injection, schedule: Q01DX005 (ip), vehicle: other) 201 % of control and 267 % of control and 298 % of control; (endpoint: mean survival time, dose: 40.0 mg/kg/injection, schedule: Q01DX004 (ip), vehicle: other) 263 % of control and 291 % of control; (endpoint: mean survival time, dose: 40.0 mg/kg/injection, schedule: Q02DX004 (ip), vehicle: other) 213 % of control and 226 % of control. For the same molecule, the T/C by setting is: (endpoint: mean survival time, dose: 40.0 mg/kg/injection, schedule: Q03DX004 (ip), vehicle: other) 216 % of control and 246 % of control; (endpoint: mean survival time, dose: 60.0 mg/kg/injection, schedule: Q01DX004 (ip), vehicle: other) 249 % of control and 323 % of control; (endpoint: mean survival time, dose: 60.0 mg/kg/injection, schedule: Q02DX004 (ip), vehicle: other) 248 % of control and 280 % of control; (endpoint: mean survival time, dose: 60.0 mg/kg/injection, schedule: Q03DX004 (ip), vehicle: other) 242 % of control and 305 % of control; (endpoint: mean survival time, dose: 60.0 mg/kg/injection, schedule: Q04DX004 (ip), vehicle: other) 202 % of control and 260 % of control; (endpoint: mean survival time, dose: 90.0 mg/kg/injection, schedule: Q02DX004 (ip), vehicle: other) 277 % of control and 309 % of control. For the same molecule, the T/C is 291 % of control and 328 % of control (endpoint: mean survival time, dose: 90.0 mg/kg/injection, schedule: Q03DX004 (ip), vehicle: other); 340 % of control and 303 % of control (endpoint: mean survival time, dose: 90.0 mg/kg/injection, schedule: Q04DX004 (ip), vehicle: other); 200 % of control (endpoint: mean survival time, dose: 100.0 mg/kg/injection, schedule: Q01DX001 (ip), vehicle: saline with Tween-80); 175 % of control and 249 % of control (endpoint: mean survival time, dose: 135.0 mg/kg/injection, schedule: Q03DX004 (ip), vehicle: other); 267 % of control and 327 % of control (endpoint: mean survival time, dose: 135.0 mg/kg/injection, schedule: Q04DX004 (ip), vehicle: other); 229 % of control (endpoint: mean survival time, dose: 150.0 mg/kg/injection, schedule: Q01DX001 (ip), vehicle: saline with Tween-80). The T/C reads like this: (endpoint: mean survival time, dose: 200.0 mg/kg/injection, schedule: Q04DX004 (ip), vehicle: other) 203 % of control and 244 % of control; (endpoint: median survival time, dose: 75.0 mg/kg/injection, schedule: Q04DX002 (ip), vehicle: saline with Tween-80) 318 % of control and 327 % of control; (endpoint: median survival time, dose: 100.0 mg/kg/injection, schedule: Q04DX002 (ip), vehicle: saline with Tween-80) 314 % of control and 315 % of control.

`O=NN(CCCl)C(=O)NC1CSCSC1`: the T/C was 106 % of control and 102 % of control (endpoint: mean survival time, dose: 2.0 mg/kg/injection, schedule: Q01DX001 (ip), vehicle: other); 109 % of control (endpoint: mean survival time, dose: 4.0 mg/kg/injection, schedule: Q01DX001 (ip), vehicle: other); 293 % of control (endpoint: mean survival time, dose: 4.5 mg/kg/injection, schedule: Q04DX004 (ip), vehicle: saline with Tween-80); 443 % of control (endpoint: mean survival time, dose: 7.0 mg/kg/injection, schedule: Q04DX004 (ip), vehicle: saline with Tween-80); 156 % of control and 161 % of control (endpoint: mean survival time, dose: 8.0 mg/kg/injection, schedule: Q01DX001 (ip), vehicle: other); 735 % of control (endpoint: mean survival time, dose: 11.0 mg/kg/injection, schedule: Q04DX004 (ip), vehicle: saline with Tween-80). Moreover, the T/C runs as follows: (endpoint: mean survival time, dose: 16.5 mg/kg/injection, schedule: Q01DX001 (ip), vehicle: other) 393 % of control and 311 % of control; (endpoint: mean survival time, dose: 16.5 mg/kg/injection, schedule: Q04DX004 (ip), vehicle: saline with Tween-80) 1060 % of control; (endpoint: mean survival time, dose: 33.0 mg/kg/injection, schedule: Q01DX001 (ip), vehicle: other) 490 % of control and 588 % of control.

As for `Nc1ccn(C2OC(COC(=O)C34CC5CC(CC(C5)C3)C4)C(O)C2O)c(=O)n1` (centres undefined), the T/C (endpoint: mean survival time, dose: 100.0 mg/kg/injection, schedule: Q01DX001 (ip), vehicle: other) was 150 % of control and 178 % of control; the T/C (endpoint: mean survival time, dose: 200.0 mg/kg/injection, schedule: Q01DX001 (ip), vehicle: other) was 189 % of control and 215 % of control; the T/C (endpoint: mean survival time, dose: 400.0 mg/kg/injection, schedule: Q01DX001 (ip), vehicle: other) is 464 % of control and 281 % of control.

As to `O=NN(CCF)C(=O)NCCCl`, the T/C was 197 % of control and 294 % of control (endpoint: mean survival time, dose: 9.0 mg/kg/injection, schedule: Q01DX001 (ip), vehicle: Klucel (hydroxypropylcellulose) (HPC)); 226 % of control and 270 % of control (endpoint: mean survival time, dose: 14.0 mg/kg/injection, schedule: Q01DX001 (ip), vehicle: Klucel (hydroxypropylcellulose) (HPC)); 342 % of control and 307 % of control (endpoint: mean survival time, dose: 21.0 mg/kg/injection, schedule: Q01DX001 (ip), vehicle: Klucel (hydroxypropylcellulose) (HPC)); 603 % of control and 323 % of control (endpoint: mean survival time, dose: 32.0 mg/kg/injection, schedule: Q01DX001 (ip), vehicle: Klucel (hydroxypropylcellulose) (HPC)).

For the molecule `NC(=O)c1csc(C2OC(CO)C(O)C2O)n1` (centres undefined), the T/C was 241 % of control (endpoint: median survival time, dose: 330.0 mg/kg/injection, schedule: Q01DX009 (ip), vehicle: water); 265 % of control (endpoint: median survival time, dose: 500.0 mg/kg/injection, schedule: Q01DX009 (ip), vehicle: water); 268 % of control (endpoint: median survival time, dose: 750.0 mg/kg/injection, schedule: Q01DX009 (ip), vehicle: water).

`O=NN(CCCl)C(=O)NC1CS(=O)(=O)CS(=O)(=O)C1`: the T/C is 177 % of control (endpoint: mean survival time, dose: 8.0 mg/kg/injection, schedule: Q04DX004 (ip), vehicle: saline with Tween-80); 529 % of control (endpoint: mean survival time, dose: 12.0 mg/kg/injection, schedule: Q04DX004 (ip), vehicle: saline with Tween-80); 687 % of control (endpoint: mean survival time, dose: 18.0 mg/kg/injection, schedule: Q04DX004 (ip), vehicle: saline with Tween-80).

In the case of `CN(C)/N=N/c1nc[nH]c1C(N)=O`, the T/C reads like this: (endpoint: mean survival time, dose: 42.0 mg/kg/injection, schedule: Q01DX001 (ip), vehicle: carboxymethylcellulose (CMC)) 85 % of control and 86 % of control; (endpoint: mean survival time, dose: 83.0 mg/kg/injection, schedule: Q01DX001 (ip), vehicle: carboxymethylcellulose (CMC)) 97 % of control and 98 % of control; (endpoint: mean survival time, dose: 170.0 mg/kg/injection, schedule: Q01DX001 (ip), vehicle: carboxymethylcellulose (CMC)) 114 % of control and 115 % of control; (endpoint: mean survival time, dose: 180.0 mg/kg/injection, schedule: Q01DX001 (ip), vehicle: carboxymethylcellulose (CMC)) 113 % of control; (endpoint: mean survival time, dose: 600.0 mg/kg/injection, schedule: Q01DX001 (ip), vehicle: carboxymethylcellulose (CMC)) 161 % of control; (endpoint: mean survival time, dose: 900.0 mg/kg/injection, schedule: Q01DX001 (ip), vehicle: carboxymethylcellulose (CMC)) 193 % of control. Further, the T/C is 183 % of control and 184 % of control (endpoint: mean survival time, dose: 1012.0 mg/kg/injection, schedule: Q01DX001 (ip), vehicle: carboxymethylcellulose (CMC)); 113 % of control (endpoint: mean survival time, dose: 1350.0 mg/kg/injection, schedule: Q01DX001 (ip), vehicle: carboxymethylcellulose (CMC)).
